# Laboratory results taken from patent US10806711B2 (priority 2011, dated 2020).
# “Also recorded” adds a separate entry of the source.
# Key:
# [1] = system: isolated ventricular myocytes; test: Myocyte Ca2+ transient and cytosolic Ca2+ measurement; assay type: cell-based, mouse
# Description: Isolation of ventricular myocytes—Hearts from WT mice (12-week old) were perfused on the Langendorff system with a modified Krebs-Henseleit buffer (KHB) composed of (mM) NaCl 118, KCl 5.4, HEPES 10, NaH2PO4 0.33, MgCl2 2, glucose 10, taurine 30, butanedione monoxime 10 (pH=7.4). Then an enzyme solution (KHB containing 0.7 mg/ml type II collagenase, 0.1% BSA and 25 μM CaCl2) was used to digest the hearts for 10 min. Finally, ventricles of the hearts were excised, minced and filtered to obtain isolated cells. After sufficient sedimentation, the supernatant was removed and the cells were resuspended.
# Myocyte Ca^2+ transient and cytosolic Ca^2+ measurement—Myocytes were loaded with Fluo-4 acetoxymethyl ester (7 μM) for 20 min at room temperature, followed by a 10 min wash with Tyrode's solution, and then placed onto a plexiglass chamber for recording. For Ca^2+ transient measurements, myocytes were excited under 0.5 Hz and 3 Hz field stimulation, and the fluorescence signals were obtained using a Nikon TE 2000 microscope and collected through an InCyt Standard photometry system. For cytosolic Ca^2+ analysis in quiescent myocytes, a Zeiss LSM 510 confocal microscope was used to record fluorescent images from resting myocytes. Line-scan mode was applied at 3.07 ms intervals with 512 pixels spaced at 0.056 μm. Drugs were dissolved in Tyrode's solution and perfused into the chamber. Images of myocytes were recorded every 30 s after drug application. Data analysis was performed using Clampfit 9.2 and Image J 1.44 software.
# Water soluble probenecid was used for all of the myocyte experiments.
# [2] = system: HL-1 cells; assay type: cell-based
# Description: Cell Viability Assays—Cell viability was assessed using the ApoTox-Glo Triplex Assay (Promega, Madison, Wis.) per manufacturer's instructions. Briefly, HL-1 cells were seeded in 96 well plates at a density of 1×10^4 cells/well and allowed to grow overnight in Claycomb media supplemented with 10% FBS, 100 U/ml penicillin/streptomycin, and 2 mM L-glutamine. […] GF-AFC viability was then added to ApoTox-Glo Assay Buffer at a ratio of 10 μl GF-AFC to 2.0 ml Assay Buffer and 20 μl of this mixture was added to each well and cells were incubated at 37° C. for 30 minutes. Fluorescence was measured at 400 nm (ex)/505 nm (em) and the data was normalized to untreated control cells.
# [3] = system: isolated ventricular myocytes; test: Myocyte contractility measurement; assay type: cell-based, mouse; conditions: ruthenium red pretreatment, 10^−7 M probenecid
# Description: Isolation of ventricular myocytes—Hearts from WT mice (12-week old) were perfused on the Langendorff system with a modified Krebs-Henseleit buffer (KHB) composed of (mM) NaCl 118, KCl 5.4, HEPES 10, NaH2PO4 0.33, MgCl2 2, glucose 10, taurine 30, butanedione monoxime 10 (pH=7.4). Then an enzyme solution (KHB containing 0.7 mg/ml type II collagenase, 0.1% BSA and 25 μM CaCl2) was used to digest the hearts for 10 min. Finally, ventricles of the hearts were excised, minced and filtered to obtain isolated cells. After sufficient sedimentation, the supernatant was removed and the cells were resuspended. Myocyte contractility measurement—Myocytes were put on a plexiglass chamber containing a Tyrode's solution composed of (mM) NaCl 140, KCl, 5.4, MgCl2 1, CaCl2 1.8, HEPES 5, glucose 10 (pH=7.4). Myocytes were excited under 0.5 Hz field stimulation. After reaching the steady state, myocyte shortening and the rates of shortening (+dL/dt) and relengthening (−dL/dt) were imaged with a CCD camera and monitored by a video-edge detector. Drugs were dissolved in Tyrode's solution and perfused into the chamber. Data were continuously collected through the PCLAMP 9 software. Water soluble probenecid was used for all of the myocyte experiments.
smiles,measurement,setting,value
C/C=C(/C)C(=O)O[C@H]1C(C)=C2[C@H]([C@@H]1OC(=O)CCCCCCC)[C@@](C)(OC(C)=O)C[C@H](OC(=O)CCC)[C@@]1(O)[C@H]2OC(=O)[C@@]1(C)O [thapsigargin],effect on the change in cytosolic Ca2+ by probenecid,"[1]; thapsigargin 10^−6 M pretreatment 15 minutes, 10^−7 M probenecid",abolished
CC(C)NCC(O)c1ccc(O)c(O)c1 (stereo not shown) [isoproterenol],"cell death at 24 hours, compared with H2O2 positive control","[2]; 1.0 mM, 24 hours",substantial cell death; also recorded: indistinguishable from H2O2 positive controls
same,cells still viable,"[2]; 1.0 mM, 24 hours",less than 20%
same,cell death,"[2]; 1.0 mM, after 4 and 8 hours of treatment",significant amount of cell death
same,cell death in HL-1 cells (Example 3 summary),"[2]; probenecid at supraphysiological, isoproterenol at clinically relevant concentrations",increased cell death
N.N.N.N.N.N.N.N.N.N.N.N.N.N.[Cl-].[Cl-].[Cl-].[Cl-].[Cl-].[Cl-].[O-2].[O-2].[Ru+3].[Ru+3].[Ru+4] [ruthenium red],effect of pretreatment on probenecid's effect on myocyte contractility,[3],completely abolished
same,effect on the increase of cytosolic Ca2+ by probenecid,"[1]; ruthenium red 1 μM applied, 0.1 μM probenecid",fully blocked
